# US11076594B2, “Pyrazolone compound or salt thereof, preparation method therefor, herbicide composition and use thereof” (QINGDAO KINGAGROOT CHEMICAL COMPOUNDS CO., LTD., priority 2015, dated 2021)
# Legend:
# Assay type in all cases: in vivo
# Design in all cases: key: Level 10: completely dead; Level 9: above 95% growth control rate; Level 8: above 90% growth control rate; Level 7: above 80% growth control rate; Level 6: above 70% growth control rate; Level 5: above 60% growth control rate; Level 4: above 50% growth control rate; Level 3: above 20% growth control rate; Level 2: 5%-20% growth control rate; Level 1: below 5% growth control rate
# bidens tripartite = assay: weed control effect evaluation in rice field; conditions: 125 g/ha ai; rice field pot; 14 days after treatment; resistant to pyrazosulfuron-ethyl
# Source text: (§1) The activity level standard of harmful plant destruction (i.e. growth control rate) is as follows: Rice field soil was loaded into a 1/1,000,000 ha pot. The seeds of echinochloa, scirpus juncoides, bidens tripartite and sagittaria trifolia were sowed and gently covered with soil, then left to stand still in greenhouse in the state of 0.5-1 cm of water storage. The tuber of sagittaria trifolia was planted in the next day or 2 days later. It was kept at 3-4 cm of water storage thereafter. The weeds were treated by dripping the WP or SC water diluents prepared according to the common preparation method of the compounds of the present invention with pipette homogeneously to achieve specified effective amount when echinochloa, scirpus juncoides and bidens tripartite reached 0.5 leaf stage and sagittaria trifolia reached the time point of primary leaf stage. The fertility condition of echinochloa, scirpus juncoides, bidens tripartite and sagittaria trifolia 14 days after the treatment of the compound of the invention and the fertility condition of rice 21 days after the treatment of the compound of the invention respectively with the naked eye.
# scirpus juncoides = assay: weed control effect evaluation in rice field; conditions: 125 g/ha ai; rice field pot; 14 days after treatment; resistant to pyrazosulfuron-ethyl
# Source text: as §1
# echinochloa = assay: weed control effect evaluation in rice field; conditions: 125 g/ha ai; rice field pot; 14 days after treatment; resistant to pyrazosulfuron-ethyl
# Source text: as §1
# sagittaria trifolia = assay: weed control effect evaluation in rice field; conditions: 125 g/ha ai; rice field pot; 14 days after treatment; resistant to pyrazosulfuron-ethyl
# Source text: as §1
# chickweed = assay: wheat field resistant broadleaf weed control, greenhouse spray at 4 leaf stage; conditions: 250 g/ha of the active substance; 4 weeks after treatment; ALS inhibitor resistant
# Procedure, shortened: (§2)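 Greenhouse post-emergence test. Weeds were treated at the 4 leaf stage, 2-3 weeks after sowing, and cultured for 4 weeks before fresh weight control rate was determined.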
# shepherd's purse = assay: as above; conditions: 250 g/ha of the active substance; 4 weeks after treatment; ALS inhibitor resistant
# Procedure, shortened: as §2
# flixweed = assay: as above; conditions: 250 g/ha of the active substance; 4 weeks after treatment; ALS inhibitor resistant
# Procedure, shortened: as §2
# corn gromwell = assay: as above; conditions: 250 g/ha of the active substance; 4 weeks after treatment; ALS inhibitor resistant
# Procedure, shortened: as §2
# alopecurus japonicas = assay: wheat field resistant weed control, greenhouse spray at 4 leaf stage; conditions: sprayed at 4 leaf stage, 4 weeks after treatment, resistant to ALS and ACCase inhibitor herbicides
# Procedure, shortened: as §2
SMILES,Bidens tripartite weed control effect (activity level) (bidens tripartite),Scirpus juncoides weed control effect (activity level) (scirpus juncoides),Echinochloa weed control effect (activity level) (echinochloa),Sagittaria trifolia weed control effect (activity level) (sagittaria trifolia),chickweed weed controlling effect (activity level) (chickweed),shepherd's purse weed controlling effect (activity level) (shepherd's purse),flixweed weed controlling effect (activity level) (flixweed),corn gromwell weed controlling effect (activity level) (corn gromwell),Alopecurus japonicas weed controlling effect (activity level) (alopecurus japonicas; 1 g/mu),Alopecurus japonicas weed controlling effect (activity level) (alopecurus japonicas; 2 g/mu),Alopecurus japonicas weed controlling effect (activity level) (alopecurus japonicas; 4 g/mu),Alopecurus japonicas weed controlling effect (activity level) (alopecurus japonicas; 8 g/mu)
CCOc1c(C(=O)Oc2c(C(=O)c3ccc(C(F)(F)F)c(-n4cc(C)cn4)c3Cl)c(C3CC3)nn2C)cnn1C [Compound 092],9 (Level 9: above 95% growth control rate),10,10,10,10,10,10,10,,,,
Cc1nn(C)c(O)c1C(=O)c1ccc(C(F)(F)F)c(N2CCCCC2=O)c1Cl [Compound 035],9 (Level 9: above 95% growth control rate),10,8 (Level 8: above 90% growth control rate),9 (Level 9: above 95% growth control rate),,,,,0,2 (Level 2: 5%-20% growth control rate),6 (Level 6: above 70% growth control rate),6 (Level 6: above 70% growth control rate)
CCOc1c(C(=O)Oc2c(C(=O)c3ccc(C(F)(F)F)c(-n4cccn4)c3Cl)c(C)nn2C)cnn1C [Compound 071],8 (Level 8: above 90% growth control rate),10,10,10,10,10,10,10,,,,
Cc1nn(C)cc1C(=O)Oc1c(C(=O)c2ccc(C(F)(F)F)c(N3CCCC3=O)c2Cl)c(C)nn1C [Compound 023],10,10,10,10,,,,,1 (Level 1: below 5% growth control rate),6 (Level 6: above 70% growth control rate),8 (Level 8: above 90% growth control rate),10
CCn1nc(C)c(C(=O)c2ccc(C(F)(F)F)c(-n3cccn3)c2Cl)c1OC(=O)c1cn(C)nc1C [Compound 129],10,10,10,10,10,10,10,10,,,,
CCOc1c(C(=O)Oc2c(C(=O)c3ccc(C(F)(F)F)c(-n4cc(C)cn4)c3Cl)cnn2C)cnn1C [Compound 081],10,10,10,10,10,10,10,10,,,,
CCOc1c(C(=O)Oc2c(C(=O)c3ccc(C(F)(F)F)c(N4CCCCC4=O)c3Cl)c(C)nn2C)cnn1C [Compound 037],10,10,10,10,10,10,10,10,,,,
